# Source: US8293764B2, “Compositions and methods for disruption of BRCA2-Rad51 interaction” (The Regents of the University of California, priority 2004, dated 2012)
# Entries after “also recorded” stand apart in the source; their conditions may differ.
# Assays:
# [1] = molecular target: T1, Rad51 multimers (Homo sapiens, UniProt Q06609); assay: Gel filtration of Rad51 multimers; type: biochemical; details: Rad51:compound molar ratio 1:10
# T1 sequence (Q06609 1-339): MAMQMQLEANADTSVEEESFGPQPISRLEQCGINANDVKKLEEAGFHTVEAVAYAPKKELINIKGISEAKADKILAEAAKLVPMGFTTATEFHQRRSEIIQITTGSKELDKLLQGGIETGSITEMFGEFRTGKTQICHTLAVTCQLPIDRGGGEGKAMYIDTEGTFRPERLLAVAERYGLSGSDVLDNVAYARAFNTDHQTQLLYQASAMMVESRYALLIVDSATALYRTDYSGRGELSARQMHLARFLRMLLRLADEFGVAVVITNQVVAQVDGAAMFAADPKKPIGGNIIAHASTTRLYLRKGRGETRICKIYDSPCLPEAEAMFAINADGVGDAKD
# Excerpt: If the IBR compound indeed occupies the hydrophobic pocket for the entrance of Phe1524 in BRCA2, the oligomerization of Rad51 should also be affected since they share the same binding region. […] Therefore, if IBR2 mimics the BRC hairpin structure, the Rad51 multimerization will also be inhibited by IBR2. We compared the gel filtration profile of Rad51 between with and without IBR2. […] The inhibition of the Rad51 and BRC repeat binding was further analyzed by SPR technology in a solution competition format as previously described (see e.g., Science 303, 844-848).
# Gel filtration: A mixture of Rad51 (3.2 μg) and small compound (molar ratio 1:10) was incubated for 15 minutes at 37° C., supplemented with buffer (50 mM triethanolamine-HCl [pH 7.5], 0.5 mM Mg (OAc)2, 1 mM dithiothreitol, 2 mM ATP, and 100 μg/ml BSA, total volume 20 μl) and incubated 15 more minutes. Then the mixture was loaded onto 2.4 ml Superdex 200 PC 3.2/30 columns (Pharmacia) equilibrated with the same buffer as described (Davies et al., 2001). Fractions (50 μl) were collected and 0.5 μl of each fraction was blotted onto PVDF membrane. Rad51 was detected using anti-Rad51 antibody (mAb 14B4).
# [2] = tested on: breast cancer cell lines (MDA-MB-231, MCF-7, MDA-MB-468, SKBR3 and MDA-MB-435); assay: Cell growth curves, trypan blue exclusion assay; type: cell-based; details: 0, 5, 10, 20 μM; 1-5 days
# Procedure: (§1) The inventors examined the effects of IBR2 on the growth and viability of a panel of breast cancer cell lines. Five exponentially growing breast cancer cell lines (MDA-MB-231, MCF-7, MDA-MB-468, SKBR3 and MDA-MB-435) were incubated with IBR2 at various concentrations (0, 5, 10 and 20 μM) for various periods of time (1, 2, 3, 4 and 5 days). The viable cell numbers were then counted by trypan blue exclusion assay. […] We also examined the effects of IBR2 on the growth and viability of cultured breast cancer cells (MDA-MB-468, MDA-MB-435, MCF-7, T47D) using the 3-(4,5-dimethylthiazol-2-yl)-2,5-diphenyltetrazolium bromide (MTT) assay.
# (§2) Cell proliferation assay and clonogenic survival assays: To obtain cell growth curves, 1×10^4 cells were seeded in 12-well plate for 24 hours. Cells were then treated, in duplicate, with various concentrations of IBR2 in the presence of 0.4% DMSO. The viable cells were counted by trypan blue exclusion assay daily. MTT assay was performed as previously described (Alley et al., 1988).
# [3] = tested on: breast cancer cells (MDA-MB-468, MDA-MB-435, MCF-7, T47D); assay: MTT assay; type: cell-based
# Procedure: as §1, §2
# [4] = tested on: human breast cancer xenograft (MDA-MB-468); assay: Tumor inhibition assay in nude mice; type: in vivo
# Procedure: To test the inhibitory effect of IBR2 on the growth of established tumor xenografts in nude mice, we chose the human breast cancer cell line MDA-MB-468 for this study. Mice with tumor size of approximately 85 mm3 were treated with three doses of IBR2 (10, 50 and 150 mg/kg i.p.) every other day for up to five weeks.
# Tumor inhibition assay in nude mice: 5×10^6 MDA-MB-468 cells in 100 μl of PBS were injected into mammary fat pad of 6-8 week old athymic female BALB/c-nude mice (nu/nu) (Charles River Laboratories). After tumors grew to 85 mm^3 (day 12), mice were randomized into four groups (n=5 per group) to receive intraperitoneal injection of IBR2 (10, 50, or 150 mg/kg) or vehicle (15% DMSO, 20% Tween 20, 10% PEG400, 55% saline) every other day for 5 weeks. Body weights of mice and tumor volumes were measured twice weekly during the course of drug treatment. A Student's t test was used to determine P value.
# [5] = tested on: BRCA2-/-:p53-/-, BRCA1-/-:p53-/- and p53-/- MEFs; assay: Sensitivity of isogenic MEFs to IBR2; type: cell-based; details: compared with BRCA1-/-:p53-/- and p53-/- MEFs
# Excerpt: Next, the inventors examined the sensitivity to IBR2 treatment of isogenic MEFs with genotypes of BRCA2−/−:p53−/−, BRCA1−/−:p53−/− and p53−/−.
# [6] = tested on: MCF-7 breast cancer cells; assay: Survival of cells under combination with chemotherapeutic agents or irradiation; type: cell-based
# Procedure: It is therefore likely that combination of IBR2 with other chemotherapeutic agents may have synergistic effects. To test this possibility, survival of MCF-7 breast cancer cells treated with 8 μM IBR2 plus different doses of VP-16, taxol, camptothecin, or gamma-irradiation was measured. […] Thus, it should be appreciated that a combination of IBR2 with other conventional therapeutic agents may have potential clinical applications in treating various cancers.
# To perform clonogenic survival assay, 1.5×10^3 MCF-7 cells were seeded in 10-cm dishes for 24 hours. Cells were then treated, in triplicate, with 5 μM IBR2 for 12 hours and then g-irradiated. Cells were continuously exposed to 5 μM IBR2 and re-fed every 4 days with fresh medium and IBR2. After 14-16 days, cells were fixed and stained with 2% methylene blue. Colonies consisting of more than 50 cells were counted.
structure (smiles),measurement,setting,value
"O=S(=O)(Cc1ccccc1)N1C=Cc2ccccc2C1c1c[nH]c2ccccc12 (stereo not drawn) [IBR2, 2-(benzylsulfonyl)-1-(1H-indol-3-yl)-1,2-dihydroisoquinoline]",Rad51 multimerization (gel filtration elution profile),[1],dissociates Rad51 multimers
same,growth of breast cancer cell lines (viable cell numbers),[2],retarded growth of breast tumor cells in culture; also recorded: significantly inhibited the growth
same,IC50,[3],~10 µM
same,average body weights of nude mice,"[4]; 10, 50 and 150 mg/kg i.p.",remained almost constant
same,toxicity to animals,"[4]; 10, 50 and 150 mg/kg i.p.",without apparent toxicity to animals
same,retardation of tumor growth,"[4]; 10, 50 and 150 mg/kg i.p. every other day up to five weeks, vs vehicle",up to 65%
same,tumorigenicity in nude mice,"[4]; mouse, in vivo",significantly reduced tumorigenicity in nude mice
same,sensitivity of BRCA2-/-:p53-/- MEFs to IBR2,[5],most sensitive
same,synergy with VP-16 on cell survival,[6]; 8 μM IBR2 plus different doses of VP-16,Significant synergistic effects
same,synergy with camptothecin on cell survival,[6]; 8 μM IBR2 plus different doses of camptothecin,Significant synergistic effects
same,synergy with gamma-irradiation on clonogenic survival,[6]; 8 μM IBR2 plus different doses of gamma-irradiation,Significant synergistic effects
same,synergy with taxol on cell survival,[6]; 8 μM IBR2 plus different doses of taxol,Significant synergistic effects
